Read-outs that look alike come from different tables or passages of the source.
How the values were obtained:
[1] = tested on: Bcl-2; details: Literatures 13 through 16, cited from earlier work
[2] = tested on: SITH-1/Adv nasal administration mice; assay: Tail suspension test of SSRI-treated SITH-1/Adv nasal administration mice; assay type: in vivo; details: 80 mg/L Fluoxetine solution as drinking water from 2 weeks before nasal SITH-1/Adv; test 7 days after nasal administration, 10 minutes
Protocol: 8-week-old C57BL/6NCrSlc mice were raised at a room temperature of 24±1° C. and with lights on for 12 hours and off for 12 hours. After each of the mice was anesthetized with use of isoflurane, SITH-1/Adv or empty/Adv in an amount equivalent to 2.5×10^7 ifu was dropped onto the nasal cavity, and was then sucked along with breathing. Then, the mice were returned to raising cages.
7 days after the nasal administration of SITH-1/Adv or empty/Adv, a tail suspension test was carried out for 10 minutes. A period of immobility time was measured with use of TailSuspScanTopScan (CleverSys, Inc.). The tail suspension test was carried out by suspending each mouse by taping the tail 1 cm from the end. […] In the experiment, 30 mice were used in each group.
Then, it was studied whether or not an SSRI (selective serotonin reuptake inhibitor), which is an antidepressant, would restrict an increase in immobility time, the increase being caused by the nasal administration of the SITH-1/Adv. 80 mg/L of Fluoxetine solution as drinking water was given to 6-week-old mice (see Literature 18), and then the mice were raised for 2 weeks. Then, SITH-1/Adv was nasally administered. 7 days after the nasal administration, a tail suspension test was carried out for 10 minutes. […] Statistical significance (* indicates P<0.05, ** indicates P<0.01, and *** indicates P<0.001) was calculated by use of the Mann-Whitney U-test.

[3] = tested on: HHV-6 HST strain; assay: SITH-1 expression in HHV-6-infected U373 cells pre-reacted with heparin or anti-heparan sulfate peptide; assay type: cell-based; details: cells reacted with 10 unit/mL Novo-Heparin at 4° C. for 1 hour before infection; MOI 3; 48 hours
Protocol: U373 astrocytoma cells were removed with use of trypsin-EDTA, and then a medium (10% FBS-containing DMEM) was added, so that the resultant cells were at 1×10^5 cell/mL. Then, the U373 cells were reacted with 10 unit/mL of Novo-Heparin (Mochida Pharmaceutical Co., Ltd.) or 0.1 mM of anti-3-OS Heparan sulfate (HS) peptide trifluoroacetate salt (Sigma-Aldrich) at 4° C. for 1 hour. The U373 cells were also reacted only with a medium as a control at 4° C. for 1 hour. The resultant cells were washed 3 times with a medium. Then, the U373 cells thus washed were infected with a HHV-6 HST strain virus fluid (2.9×10^6 ffu/ml) at a MOI of 3 by centrifugation. Then, the infected cells were cultured at 37° C. for 48 hours in a CO2 incubator.
From the resultant infected cells, RNA was purified by use of RNeasy Mini Kit (Qiagen) in accordance with the standard protocol. Then, cDNA was synthesized by use of a PrimeScript RT Reagent Kit (Takara Bio). Finally, expression levels of SITH-1 and GAPDH mRNA were measured by a method similar to that used in the above (3.1).

Compound	Bcl-2 expression in the brain [1]	other results
N[C@@H]1C[C@H]1c1ccccc1 (racemic) [tranylcypromine]	promote Bcl-2 expression in the brain	
CNCCC(Oc1ccc(C(F)(F)F)cc1)c1ccccc1 (stereo not shown) [Fluoxetine]	promotes Bcl-2 expression	immobility time increases in tail suspension test [2]: restricted; Bcl-2 expression in the brain ([1]; listed as fluoxetine): promote Bcl-2 expression in the brain
CN(C)CCC=C1c2ccccc2CCc2ccccc21 [amitriptyline]	promote Bcl-2 expression in the brain	
CNCCCN1c2ccccc2CCc2ccccc21 [desipramine]	promote Bcl-2 expression in the brain	
CN(C)CCCN1c2ccccc2CCc2ccccc21 [imipramine]	promote Bcl-2 expression in the brain	
CCOc1ccccc1OC(c1ccccc1)C1CNCCO1 (stereo not shown) [reboxetine]	promote Bcl-2 expression in the brain	
COc1ccc(C(CN(C)C)C2(O)CCCCC2)cc1 (stereo not shown) [venlafaxine]	promote Bcl-2 expression in the brain	
heparin		SITH-1 expression in U373 cells [3]: restricted
